In patent US20060004044A1, “3-glyoxylamideindoles for treating cancer” (Synta Pharmaceuticals Corp., priority 2001, published 2006):

What was measured:
[1] = test system: MES-SA/DX5 multi-drug resistant human uterine sarcoma cell line; experiment: In vitro anti-cancer activity against MDR cell line MES-SA/DX5; type: cell-based; details: for IC50: MES-SA/DX5 cells, 72 hours, MTS
Procedure: (§1) The cell lines were maintained in RPM11640(GIBCO) supplemented with 10% FCS, 100 units/ml penicillin, 100 ug/ml streptomycin, and 2 mM L-glutamine. The cells were split every third day and diluted to a concentration of 2×10^5 cells/ml one day before experiment. All experiments were performed on exponentially growing cell culture. Cell densities were 2.5×10^4 cells/ml in all experiment.
(§2) A stock solution of Compound (1) was prepared by dissolving the compound at a concentration of 1 mM in 100% DMSO. Final concentrations were obtained by diluting the stock solution directly into the tissue culture medium. Cells were incubated with varying concentrations of compounds for 72 hours and the IC50 was determined by MTS (i.e. […]) assay. IC50 stands for the concentration of compound required to inhibit 50% tumor cell growth.
(§3) In vitro activity was determined in two MDR (Multi Drug Resistant) human cancer cell lines. HL-60/TX1000 was isolated in vitro by subculturing HL-60 in progressively higher concentration of Taxol. HL-60/TX1000 cells over-express mdr-1 mRNA and p-glycoprotein, as determined by western blot and immunofluorescence labeling with antiPGP antibodies. The cell is cross-resistant to Taxol, Vincristine, Adriamycin, Etoposide and Doxorubicin. MES-SA/Dx5 was established in the presence of increasing concentrations of Doxorubicin. […] MES-SA/Dx5 was purchased from ATCC.
(§4) The procedure for culturing the cells and assaying cancer cell growth inhibition were as described in Example 3.
(§5) The protocol described in Example 3 was used to assay inhibition by Compounds (2)-(10) on the growth of the multi-drug resistant cell lines MES-SA/DX5 and HL60/TX1000.

[2] = test system: HL-60/TX1000 multi-drug resistant human myeloid leukemia cell line; experiment: In vitro anti-cancer activity against MDR cell line HL-60/TX1000; type: cell-based; details: for IC50: Homo sapiens, HL-60/TX1000 cells, 72 hours, MTS
Procedure: as §1, §2, §3, §4, §5

[3] = test system: DU-145 (human prostate cancer); experiment: In vitro anti-cancer activity, MTS assay, DU-145; type: cell-based; details: DU-145 cells, 72 hours
Procedure: (§6) The in vitro activity of the compounds was determined in the following […] human cancer cell lines. MDA435 (human breast cancer), HL-60 (human myeloid leukemia), DU-145 (human prostate cancer), MES-SA (human uterine sarcoma), H2 (human leukemia) were obtained from ATCC (American Type of Culture Collection).
as §1, §2

H2 (human leukemia) = experiment: In vitro anti-cancer activity, MTS assay, H2; type: cell-based; details: H2 cells, 72 hours
Procedure: as §6, §1, §2

MCF-7 human breast tumor = experiment: Tumor growth inhibition assay, human breast tumor (MCF-7) xenograft model; type: in vivo, nude mice (CD-1 nu/nu); details: nude mice; for tumor growth inhibition (FIG. 1): 3 times a week for 3 weeks
[4] = test system: HL-60 (human myeloid leukemia); experiment: In vitro anti-cancer activity, MTS assay, HL-60; type: cell-based; details: HL-60 cells, 72 hours
Procedure: as §6, §1, §2

[5] = test system: MES-SA (human uterine sarcoma); experiment: In vitro anti-cancer activity, MTS assay, MES-SA; type: cell-based; details: MES-SA cells, 72 hours
Procedure: as §6, §1, §2

[6] = test system: MDA435 (human breast cancer); experiment: In vitro anti-cancer activity, MTS assay, MDA435; type: cell-based; details: MDA-435 cells, 72 hours
Procedure: as §6, §1, §2

[7] = test system: MDA435 human breast tumor; experiment: Tumor growth inhibition assay, human breast tumor (MDA435) xenograft model, oral treatment; type: in vivo, nude mice; details: for body weight change / loss: nude mice with MDA435 tumors, oral, Compound (5) 25 mg/kg, Compound (3) 50 mg/kg; for tumor growth inhibition (FIG. 2): nude mice, 3 times a week for 3 weeks

`NC(=O)c1ccc(NC(=O)C(=O)c2cn(Cc3ccc(Cl)cc3)c3ccccc23)nc1` [(4)] was tested, and the IC50 ([1]; Homo sapiens) was 50 nM and the IC50 ([2]; HL60/TX1000) was 50 nM.

With `CSc1nnc(NC(=O)C(=O)c2cn(Cc3ccc(Cl)cc3)c3ccccc23)[nH]1` [(6)] the IC50 ([1]; Homo sapiens) was 50 nM and the IC50 ([2]; HL60/TX1000) was 50 nM.

With `O=C(Nc1ccon1)C(=O)c1cn(Cc2ccc(Cl)cc2)c2ccccc12` [(7)] the IC50 ([1]; Homo sapiens) was 80 nM and the IC50 ([2]; HL60/TX1000) was 50 nM.

For `CN(c1ccccc1)n1cc(C(=O)C(=O)Nc2ccc3ncccc3c2)c2ccccc21` [(8)], the IC50 ([1]; Homo sapiens, MES-SA/Dx5, 72 h) was 100 nM and the IC50 ([2]; HL60/TX1000, 72 h) was 100 nM.

In the case of `N#Cc1ccc(Cn2cc(C(=O)C(=O)Nc3ccncc3)c3ccccc32)cc1` [(9)], the IC50 ([1]; Homo sapiens) is reported as 50 nM and the IC50 ([2]; HL60/TX1000) is reported as 50 nM.

With `Cc1cc(NC(=O)C(=O)c2cn(Cc3ccc(Cl)cc3)c3ccccc23)no1` [(10)] the IC50 ([1]; Homo sapiens) was 50 nM and the IC50 ([2]; HL60/TX1000) was 50 nM.

In the case of `Cc1cc(NC(=O)C(=O)c2cn(Cc3ccc(Cl)cc3)c3ccccc23)sn1` [Compound (1), 2-(1-(4-Chloro-benzyl)-1-indol-3-yl)-N-(3-methyl-isothiazol-5-yl)-2-oxo-acetamide], the IC50 ([1]; Homo sapiens) is reported as 10 nM, the “anti-cancer activity against MDR cancer cell lines (in words)” value ([1]; MES-SA/DX5) is reported as “high anti-cancer activity” and the IC50 [3] is reported as 5 nM. For the same compound, the IC50 (H2 (human leukemia)) was 5 nM, the “tumor growth inhibition (FIG. 1)” value (MCF-7 human breast tumor; 7.5 mg/kg intravenously) was “significantly inhibits tumor growth” and the “tumor growth inhibition (FIG. 1)” value (MCF-7 human breast tumor; 10 mg/kg intravenously) was “significantly inhibits tumor growth”. For the same compound, the toxicity (MCF-7 human breast tumor; 7.5 and 10 mg/kg) was “acceptable toxicity”, the “reduction of volume of tumors” value (MCF-7 human breast tumor; intravenously every second day, 10 mg/kg) was “greater than 50%” and the IC50 [4] was 5 nM. For the same compound, the “anti-cancer activity against MDR cancer cell lines (in words)” value ([2]; HL-60/TX1000) was “high anti-cancer activity”, the IC50 ([2]; HL60/TX1000) was 10 nM and the IC50 [5] was 5 nM. It also gave an IC50 [6] of 5 nM.

Compound `Cc1cc(NC(=O)C(=O)c2cn(Cc3ccc(C#N)cc3)c3ccccc23)sn1` [Compound (2)] has an IC50 ([1]; Homo sapiens) of 5 nM and an IC50 ([2]; HL60/TX1000) of 5 nM.

With `NC(=O)c1ccc(NC(=O)C(=O)c2cn(Cc3ccc(Cl)cc3)c3ccccc23)cc1` [Compound (3)] the IC50 ([1]; Homo sapiens) was 50 nM, the “body weight change / loss” value [7] was “without showing significant body weight loss” and the “tumor growth inhibition (FIG. 2)” value ([7]; 50 mg/kg orally by gavage) was “significantly inhibit tumor growth”. The IC50 ([2]; HL60/TX1000) was 50 nM.

`O=C(Nc1ccc2ncccc2c1)C(=O)c1cn(Cc2ccc(Cl)cc2)c2ccccc12` [Compound (5)] was tested, and the IC50 ([1]; Homo sapiens) was 50 nM, the “body weight change / loss” value [7] was “without showing significant body weight loss” and the “tumor growth inhibition (FIG. 2)” value ([7]; 25 mg/kg orally by gavage) was “significantly inhibit tumor growth”. It also gave an IC50 ([2]; HL60/TX1000) of 50 nM.

`CC[C@]1(O)C[C@H]2CN(CCc3c([nH]c4ccccc34)[C@@](C(=O)OC)(c3cc4c(cc3OC)N(C=O)[C@H]3[C@@](O)(C(=O)OC)[C@H](OC(C)=O)[C@]5(CC)C=CCN6CC[C@]43[C@@H]65)C2)C1` [Vincristine, reference compound] was tested, and the IC50 ([1]; Homo sapiens, MES-SA/Dx5, 72 h) was 1000 to 5000 nM and the IC50 [1] was 1000 nM.
